Entries after “also recorded” stand apart in the source; their conditions may differ. Like-named read-outs stand apart in the source and are kept apart here. One block for each molecule: values may come before it.
Experiments:
[1] = Cytotoxicity assay, resazurin, HEK293T; type: cell-based, human; settings: human
Method: (§1) HEK293T and HepG2 cells were cultured at 37 °C with 5% CO2 in Dulbecco’s modified eagle medium containing 10% FBS. Both cell types were plated individually in 384 well plates for testing the natural compounds at 3-fold dilution from 100 µM in 10-points concentration and incubated for 3 days. To determine viability, 10.0 µL of a 280 µM solution of resazurin sodium salt in water was added to the cells in the assay plate for at least 5 h (final concentration, 40.0 µM of resazurin) and resazurin reduction was measured with a Victor 3^TM fluorimeter (PerkinElmer) at 530 nmEx/590 nmEm.
(§2) The acquired images from the high content intracellular T. cruzi screening were subjected to in-house software to quantify cell numbers, parasite numbers, and infection ratio as previously described. Each compound’s activity was normalized based on values of drug positive and negative control (120 nM of pentamidine for T. brucei and T. cruzi assays, 83.0 µM of chlorpromazine for cytotoxicity, and DMSO as 0% drug activity for negative control). Dose response curves were fitted by sigmoidal dose-response with variable slope, equation described as Y = Bottom + (Top − Bottom)/(1 + 10^(LogEC5 − X) − HillSlpe) using GraphPad Prism 6 Software (GraphPad Software, Suite 230 La Jolla, CA, USA).

[2] = Cytotoxicity assay, resazurin, HepG2; type: cell-based, human; settings: human
Method: as §1, §2

[3] = system: intracellular amastigotes of T. cruzi Y strain; test: Anti-trypanosomal activity on intracellular T. cruzi Y strain, high content image assay; type: cell-based, Trypanosoma cruzi; settings: for activity against intracellular T. cruzi (in words): 50.0 µM; for decrease of parasite survival / reduction of parasites growth compared to the DMSO control: 50.0 μM, 48 h, U2OS host cells
Method: (§3) The assay for activity against T. cruzi Y strain was performed as previously described. Briefly, T. cruzi parasites were maintained in form of Tissue Culture Trypomastigote (TCT) by circulation in LLC-MK2 cell line (CCL-7, ATTC, Manassas, VA, USA). Seven days after the infection, the supernatant containing TCT parasites was collected and used to reinfect new cultures of LLC-MK2. The U2OS human cell (HTB-96, ATCC), cultivated in DMEM-high glucose media supplemented with 10% heat inactivated FBS, was used for the in vitro assay preparation. The cells were infected with the TCT form of T. cruzi. A homogeneous mixture of parasites and cells in DMEM-low glucose media, supplemented with 2% heat inactivated FBS, and was seeded into 384-well plates at 50.0 µL/well. The test compounds (final concentration of 50.0 µM) were added in 10.0 µL of 6% DMSO (final concentration, 1% DMSO) and the cells were incubated for 48 h at 37 °C, 5% CO2. After the incubation, the cells and parasites were fixed with 4% PFA and stained with 5.0 µM Draq5. Fluorescent images were acquired from each assay well using an Operetta microscope (Perkin Elmer).
as §2

[4] = system: T. brucei strain 427 bloodstream forms; test: Anti-trypanosomal activity on T. brucei, resazurin dose response; type: cell-based, Trypanosoma brucei; settings: for SI (Selectivity index): relative to HEK293T and HepG2 cells vs T. brucei
Method: T. brucei strain 427 bloodstream forms were cultivated at 37 °C with 5% CO2 in HMI-9 medium supplemented with 10% FBS. Cultivated parasites (2,500) were seeded in 384 well plates with the natural compounds and incubated for 3 days. After the incubation, the parasites were exposed to 120 µM of resazurin sodium salt (10.0 µL of a 720 µM solution in water) for 5 h. Then, the parasites were fixed with 4% PFA and the assay plates were read by Victor 3™ (PerkinElmer, Waltham, MA, USA) at 530 nmEx/590 nmEm. Pentamidine was used as a reference drug and DMSO 0.5% was used as a drug-negative control.
as §2

HEK293T cells = test: Cytotoxicity assay, resazurin, HEK293T; type: cell-based, human; settings: pure compounds up to 100 µM
Method: as §1, §2

HepG2 cells = test: Cytotoxicity assay, resazurin, HepG2; type: cell-based, human; settings: pure compounds up to 100 µM
Method: as §1, §2

U2OS human cell = test: Host cell number in the T. cruzi high content image assay; type: cell-based; settings: 50.0 μM, 48 h, U2OS infected with T. cruzi
Method: as §3
The acquired images from the high content intracellular T. cruzi screening were subjected to in-house software to quantify cell numbers, parasite numbers, and infection ratio as previously described. […]

Plasmodium falciparum = system: Plasmodium falciparum; design: method as in PMID 21157686; settings: cited from earlier work
T. brucei rhodesiense = system: T. brucei rhodesiense; design: method as in PMID 21157686; settings: cited from earlier work
[5] = HEK293T cells, HEK293T, 3 days, highest concentration 100 µM, read-out: Cytotoxicity CC50 Values HEK293T
[6] = HepG2 cells, HepG2, 3 days, highest concentration 100 µM, read-out: Cytotoxicity CC50 Values HepG2
[7] = Trypanosoma brucei, 72 h, bloodstream forms, 3 days incubation, resazurin, read-out: T. brucei EC50 Values

SMILES: CN(C)CCCN1c2ccccc2Sc2ccc(Cl)cc21 [Chlorpromazine, reference compound]
CC50 at 3 days [1, 5]: 19.9 ± 3.48 µM | CC50 at 3 days [2, 6]: 16.5 ± 0.45 µM

EC50 [4, 7]: 5.34 ± 0.47 µM | EC50 ([4]; Trypanosoma brucei, bloodstream forms, resazurin, read-out: T. brucei EC50): 1.69 ± 0.12 µg/mL | reduction of the host cells (U2OS human cell): 33%
SMILES: C=C1CO[C@H]2/C=C(\C)CC[C@@H]3O[C@]3(C)CC/C=C(\C)CC[C@@]12O [Compound 1, laevigatol B]
activity against intracellular T. cruzi (in words) [3]: significant activity; also recorded: significant inhibitory effects; also recorded: active | decrease of parasite survival / reduction of parasites growth compared to the DMSO control [3]: 84.8% | SI (Selectivity index) [4]: >18.7 | cytotoxicity on HEK293T (in words) (HEK293T cells): did not display cytotoxicity | CC50 at 3 days [1, 5]: > 100 µM | cytotoxicity on HepG2 (in words) (HepG2 cells): did not display cytotoxicity | CC50 at 3 days [2, 6]: > 100 µM

SMILES: CC(C)[C@@H](C)CC[C@@H](C)[C@H]1CC[C@H]2[C@@H]3CCC4=CC(=O)CC[C@]4(C)[C@H]3CC[C@]12C [Compound 2, (24S)-ergost-4-ene-3-one]
EC50 [4, 7]: 5.47 ± 0.27 µM | SI (Selectivity index) [4]: >18.3 | CC50 at 3 days [1, 5]: > 100 µM | CC50 at 3 days [2, 6]: > 100 µM

EC50 [4, 7]: 1.17 ± 0.14 µM | EC50 ([4]; bloodstream forms, 3 days incubation, resazurin, read-out: T. brucei EC50 Values): 1.57 ± 0.14 µM
SMILES: CC(C)CCC[C@@H](C)[C@H]1CC[C@@H]2[C@]1(C)CC[C@@H]1[C@@]3(C)CC[C@H](O)C[C@@H]3[C@@H](C=O)[C@]12O [Compound 3, astropectenol A]
SI (Selectivity index) [4]: >63.7 | CC50 at 3 days [1, 5]: > 100 µM | CC50 at 3 days [2, 6]: > 100 µM

SMILES: CC(C)CCC[C@@H](C)[C@H]1CC[C@H]2C3=C(CC[C@]12C)[C@@]1(C)CC[C@H](O)C[C@]1(O)[C@H](O)[C@H]3O [Compound 4, cholest-8-ene-3β,5α,6β,7α-tetraol]
EC50 [4, 7]: 14.6 ± 1.36 µM | SI (Selectivity index) [4]: >6.8 | CC50 at 3 days [1]: > 100 µM | CC50 at 3 days [2]: > 100 µM

SMILES: CC(C)CCC[C@@H](C)[C@H]1CCC2=C3[C@H](O)C[C@H]4C[C@@H](O)CC[C@]4(C)[C@H]3CC[C@@]21C [Compound 5, 5α-cholest-8(14)-ene-3β,7α-diol]
activity against intracellular T. cruzi (in words) [3]: significant activity; also recorded: significant inhibitory effects; also recorded: active | decrease of parasite survival / reduction of parasites growth compared to the DMSO control [3]: 97.1% | EC50 ([4]; Trypanosoma brucei, 72 h, read-out: T. brucei EC50 Values): > 30 µM | activity against T. brucei (in words) ([4]; bloodstream forms): inactive | cytotoxicity on HEK293T (in words) (HEK293T cells): did not show any cytotoxicity | CC50 at 3 days ([1]; HEK293T, 3 days, highest concentration 100 µM, read-out: Cytotoxicity CC50 Values HEK293T): > 100 µM | cytotoxicity on HepG2 (in words) (HepG2 cells): did not show any cytotoxicity | CC50 at 3 days ([2]; HepG2, 3 days, highest concentration 100 µM, read-out: Cytotoxicity CC50 Values HepG2): > 100 µM | reduction of the host cells (U2OS human cell): not significantly reduced

EC50 [4, 7]: 0.015 ± 0.003 µM
SMILES: N=C(N)c1ccc(OCCCCCOc2ccc(C(=N)N)cc2)cc1 [Pentamidine, reference compound]
SI (Selectivity index) [4]: <26.7 | SI (Selectivity index) ([4]; listed as pentamidine): 26.7 | CC50 at 3 days [1, 5]: < 0.4 µM | CC50 at 3 days [2, 6]: < 0.4 µM

SMILES: C/C1=C\CC/C(C)=C/C[C@](O)(C(C)C)CC/C(C)=C/CC1 [serratol]
activity against Plasmodium falciparum (in words) (Plasmodium falciparum): active | activity against T. brucei rhodesiense (in words) (T. brucei rhodesiense): active

— article PMC6271609, “Secondary Metabolites from Vietnamese Marine Invertebrates with Activity against Trypanosoma brucei and T. cruzi” (Molecules, 2014)
